From patent US20060183773A1, “Uses of methylphenidate derivatives” (priority 2005, published 2006)
Read-outs that look alike come from different tables or passages of the source.

How the values were obtained:
IL-8 [1] = assay: IL-8 production by CD3/CD28-stimulated TRiPS T-cell line, ELISA; format: cell-based, human; details: 15 μg/ml; CD3/CD28 Dynabeads, 24 hours
IL-8 [2] = assay: IL-8 release from LPS-stimulated THP-1 monocytes, ELISA; format: cell-based, human; details: for inhibition at 15 µg/mL: Homo sapiens, read-out: % Inhibition (IL-8)
Procedure: THP-1 is a monocyte cell line obtained from American Type Culture Collection (ATCC) (catalog no. TIB-202). […] After 1 hour, lipopolysaccharide (LPS) (obtained from Sigma) was added to the cultures to give a final concentration of 200 ng/ml, and the cells were then incubated for an additional 4 hours or for an additional 24 hours. After the incubation, the cells were centrifuged, and the supernatants were collected. The concentrations of IL-8 and TNFα in the supernatants were determined by ELISA.
The concentrations of IL-8 in the supernatants were determined by ELISA performed as described in Example 4.

[3] = system: MC/9 murine fibroblast cell line; assay: MC/9 cell proliferation, Promega cell titer assay; format: cell-based; details: 72 hours
Procedure: Cells of the MC/9 murine […] cell line (obtained from ATCC, catalog no. CRL-8305) were placed into the wells of a 96-well tissue culture plate at 25,000 cells/well. The culture medium was Delbecco's Modified Eagle's Medium (DMEM) (obtained from Cambrex) containing 10% fetal calf serum (FCS) (obtained from ATCC). Nil control wells contained no additives. The remaining wells contained either 25 ng/ml murine nerve growth factor (NGF) (obtained from Upstate Biotechnology, Lake Placid, NY) or 25 ng/ml NGF and 5% TSTIM (a culture supplement prepared from rats and containing concanavalin A which was obtained from BD Biosciences). […] After 72 hours of culture at 37° C. and 5% CO2, cell proliferation was evaluated by the Promega cell titer assay as described in Example 1.

RAP-1 = RAP-1 activation pulldown assay in TRiPS cells; format: cell-based, human; details: CD3/CD28 beads + 15 μg/ml
Procedure: Day 10 TRiPS cells, 1×10^6, were incubated with 15 μg/ml of the compound of formula II (Cpd II) for 1 hour at 37° C. Then, the cells were incubated with CD3/CD28 beads (1 μl per 100,000 cells) (obtained from Dynal) for 10 minutes at 37° C. The cells were then lysed with a mild buffer (supplied with Pierce EZ-Detect activation kit described below) to produce cell extracts. Protein concentrations of the resulting extracts were determined by bicinchoninic acid (BCA) assay (Pierce) and placed on ice for immediate use.
Pulldown assays were performed using Pierce EZ-Detect activation kits according to the manufacturer's instructions utilizing GST-RAF-1-RBD and GST-RalGDS-RBD for RAS and RAP-1 respectively. Briefly, 400 μg total protein from each extract was combined with recombinant protein and glutathione resin and incubated at 4° C. for one hour with gentle shaking. The resin was then washed to remove unbound protein and the activated RAS and RAP-1 proteins were removed by boiling in the presence of SDS-PAGE loading dye containing reducing agent. RAS and RAP-1 western blots were performed to visualize the proteins using antibodies supplied with the kit. Densitometry of the X-ray films was done by scanning and computer analysis.

JNK2 = assay: Custom AntibodyArray, TRiPS cells: JNK2; format: cell-based, human; details: 15 μg/ml, 30 minutes
Procedure: (§1) Day 18 TRiPS cells, 1×10^6, were incubated for 30 minutes at 37° C., either with nothing added (“Nil”), with 1 μl CD3/CD28 Dynabeads (Dynal, Oslo, Norway) (“CD3/CD28 beads”) per 100,000 cells, or with CD3/CD28 beads and 15 μg/ml of the compound of formula II (Cpd II). After the incubation, the cells were lysed in Cell-Lytic Mammalian Cell Extraction Reagent (Sigma). After centrifugation to pellet cellular debris, the supernatants (cell extracts) were obtained.
(§2) The cell extracts (supernatants) were then analyzed using a Custom AntibodyArray™ manufactured by Hypromatrix Inc., Worcester, Mass., following the manufacturer's instructions. The Custom AntibodyArray™ is a nylon membrane blotted with antibodies to the proteins listed below. Briefly, the cell extracts were incubated with duplicate Custom AntibodyArray™'s for 2 hours at room temperature with slow shaking, followed by three washes with Tris buffer (150 mM NaCl, 25 mM Tris, 0.05% Tween-20, pH 7.5). HRP-labeled antibodies specific for phosphorylated-tyrosine, phosphorylated-serine and phosphorylated-threonine in Tris buffer were added, and the arrays incubated for 2 hours. After three more washes with Tris buffer, a peroxidase-reactive luminescent substrate was added. The arrays were visualized by exposure to X-ray film. Densitometry of the X-ray films was measured by scanning and computer analysis.

JNK3 = assay: Custom AntibodyArray, TRiPS cells: JNK3; format: cell-based, human; details: 15 μg/ml, 30 minutes
Procedure: as §1, §2

IkB-β = assay: Custom AntibodyArray, TRiPS cells: IkB-β; format: cell-based, human; details: 15 μg/ml, 30 minutes
Procedure: as §1, §2

IkB-r = assay: Custom AntibodyArray, TRiPS cells: IkB-r; format: cell-based, human; details: 15 μg/ml, 30 minutes
Procedure: as §1, §2

IL-2 = assay: Custom AntibodyArray, TRiPS cells: IL-2; format: cell-based, human; details: 15 μg/ml, 30 minutes
Procedure: as §1, §2

IL-7y = assay: Custom AntibodyArray, TRiPS cells: IL-7y; format: cell-based, human; details: 15 μg/ml, 30 minutes
Procedure: as §1, §2

IkB-ε = assay: Custom AntibodyArray, TRiPS cells: IkB-ε; format: cell-based, human; details: 15 μg/ml, 30 minutes
Procedure: as §1, §2

IkB-α = assay: Custom AntibodyArray, TRiPS cells: IkB-α; format: cell-based, human; details: 15 μg/ml, 30 minutes
Procedure: as §1, §2

VAV = assay: Custom AntibodyArray, TRiPS cells: VAV; format: cell-based, human; details: 15 μg/ml, 30 minutes
Procedure: as §1, §2

COC(=O)C(c1ccc(-c2ccccc2)cc1)C1CCCCN1 (centres unmarked) [Cpd II]
IL-8 production by the TRiPS cell line (IL-8 [1]): no effect on IL-8 production | inhibition at 15 µg/mL (IL-8 [2]; THP-1, 4 h): 23% | inhibition at 15 µg/mL (IL-8 [2]; THP-1, 24 h): 33% | Mean IL-8 Concentration (IL-8 [2]; THP-1, LPS 200 ng/ml, 4 hours, Cpd II 15 μg/ml, Dex 10 μM, LPS alone 2844.60): 2185.00 ± 78.30 pg/mL | Mean IL-8 Concentration (IL-8 [2]; THP-1, LPS 200 ng/ml, 24 hours, Cpd II 15 μg/ml, Dex 10 μM, LPS alone 6653.20): 4490.20 ± 264.46 pg/mL | release of IL-8 from LPS-stimulated monocytes (in words) (IL-8 [2]; THP-1, LPS 200 ng/ml, Cpd II 15 μg/ml, Dex 10 μM): significantly inhibited the release of IL-8 | Mean OD 530 nm ([3]; MC/9, NGF 25 ng/ml + 1 μg/ml, NGF + water 0.101): 0.117 ± 0.015 | Mean OD 530 nm ([3]; MC/9, NGF 25 ng/ml + 5 μg/ml, NGF + water 0.101): 0.108 ± 0.012 | Mean OD 530 nm ([3]; MC/9, NGF 25 ng/ml + 15 μg/ml, NGF + water 0.101): 0.049 ± 0.016 | Mean OD 530 nm ([3]; MC/9, NGF + TSTIM + 1 μg/ml, NGF + TSTIM + water 0.365): 0.428 ± 0.027 | Mean OD 530 nm ([3]; MC/9, NGF + TSTIM + 5 μg/ml, NGF + TSTIM + water 0.365): 0.373 ± 0.016 | Mean OD 530 nm ([3]; MC/9, NGF + TSTIM + 15 μg/ml, NGF + TSTIM + water 0.365): 0.326 ± 0.024 | inhibition of RAP-1 (in words) (RAP-1): appeared to inhibit RAP-1 | Integrated Optical Density for RAP-1 assay (RAP-1; no treatment 259.27, beads only 213.66): 87.26 | Effect of Cpd II on the protein in CD3/CD28 stimulated TRiPS cells (JNK2): Decreased level back to basal levels (Nil control) | Effect of Cpd II on the protein in CD3/CD28 stimulated TRiPS cells (JNK3): Decreased level back to basal levels (Nil control) | Effect of Cpd II on the protein in CD3/CD28 stimulated TRiPS cells (IkB-β): Decreased level back to basal levels (Nil control) | Effect of Cpd II on the protein in CD3/CD28 stimulated TRiPS cells (IkB-r): Decreased level back to basal levels (Nil control) | Effect of Cpd II on the protein in CD3/CD28 stimulated TRiPS cells (IL-2): Decreased level back to basal levels (Nil control) | Effect of Cpd II on the protein in CD3/CD28 stimulated TRiPS cells (IL-7y): Decreased level back to basal levels (Nil control) | Effect of Cpd II on the protein in CD3/CD28 stimulated TRiPS cells (IkB-ε): Slightly decreased the level | Effect of Cpd II on the protein in CD3/CD28 stimulated TRiPS cells (IkB-α): Slightly decreased the level | Effect of Cpd II on the protein in CD3/CD28 stimulated TRiPS cells (VAV): No effect
